# From patent publication US20090004683A1, “Indicator Agent for Noninflammatory Stress Response and Use Thereof” (priority 2004, published 2009)
# Tests used:
# [1] = system: procaspase-11; test: Procaspase-11 protein in the adrenal of restraint stress mice (Western blotting); format: in vivo, mouse; conditions: given i.p. during restraint
# Protocol: (§1) Each mouse was kept in a restrainer for 1 hour, and Ac-YVAD-CHO (200 μM/50 μl PBS(−)), Z-FA-fmk (100 μM/50 μl PBS(−)) and SB-203580 (100 μg/50 μl PBS(−) per mouse) were administered intraperitoneally. 1 and 3 hours after the start of restraint, SOD-1 (20 U) and DPI (30 μg) were administered intraperitoneally to the mouse, and samples were analyzed by Western blotting.
# Western blot analysis of IL-18 and phosphorylated P38MAP kinase in adrenal tissue was performed as described below. The adrenal tissue was homogenized in an immunoprecipitation (IP) buffer solution (50 mM Tris pH 7.4, 150 mM NaCl, 0.5% NP-40 and 0.5% sodium deoxycholate) containing a protease inhibitor mixture (manufactured by Roche Diagnostics) using a Polytron homogenizer. […] The aforementioned membrane was incubated with an antibody (IL-18, phosphorylated (Thr180/Tyr182) P38 MAP kinase, caspase-1 or caspase-11), and the reacted protein was detected using an ECL plus system (manufactured by Amersham biosciences). Procaspase-11 and activated P38 MAP kinase were quantified using a Science Lab 99 image analysis system (manufactured by Fujifilm).
# [2] = system: Synovial membrane tissue; test: IL-18 release from synovial membrane tissue with paraquat stimulation; format: cell-based, human; conditions: synovial membrane tissue of articular rheumatism patient, 100 nM paraquat 15 minutes; SOD 1-20 U/ml
# Protocol: Synovial membrane tissue collected from the articular synovial membrane at a lesion site of an articular rheumatism patient was subjected to tissue culture in an RPMI-1640 medium containing 10% fetal bovine serum by the method of Tanaka et al. (Tanaka M, Harigai M, Kawaguchi Y, Ohta S, Sugiura T, Takagi K, Ohsako-Higami S, Fukasawa C, Hara M, Kamatani N., J. Rheumatol. 2001 August; 28(8):1779-87). The medium was exchanged with the aforementioned medium containing 100 nM of paraquat, which is an active oxygen generator, and the cells were cultured for 15 minutes, after which the medium was exchanged with a paraquat-free medium, and the cells were further cultured for 1 hour, after which the medium was collected, and the concentration of IL-18 protein in the medium was measured.
# [3] = system: Abdominal macrophages; test: IL-18 release from macrophages with paraquat stimulation; format: cell-based, mouse; conditions: 100 nM paraquat 15 minutes, SOD 1-20 U/ml
# Protocol: Abdominal macrophages isolated from mice by the method of Hamilton et al. (Hamilton T A, Weiel J E, Adams D O., J. Immunol. 1984 May; 132(5):2285-90) were cultured in Dulbecco's minimum essential medium at 1.0-2.0×10^5/dish. The medium was exchanged with the aforementioned medium containing 100 nM of paraquat, which is an active oxygen generator, and the cells were cultured for 15 minutes, after which the medium was exchanged with a paraquat-free medium, and the cells were further cultured for 3 hours, after which the medium was collected, and the concentration of IL-18 protein in the medium was measured.
# [4] = system: Primary culture human skin keratinocytes; test: IL-18 release from keratinocytes with UV-B ray irradiation; format: cell-based; conditions: 100 mJ UV-B, SOD 1-20 U/ml or water-soluble vitamin E 100 nM-10 mM/ml
# Protocol: Primary culture human skin keratinocytes (keratinocytes: purchased from CAMBREX Company) were cultured in a basal medium for keratinocytes contained in petri dishes for cell culture 6 cm in diameter at 1.0-2.0×10^6/dish. This was irradiated with 100 mJ of ultraviolet B rays (UV-B rays), after which the cells were cultured for 1 hour, after which the medium was collected, and the concentration of IL-18 protein in the medium was measured. Also, after the UV-B ray treatment, the cells were cultured in a medium containing SOD (1, 2.5, 5, 10, 20 U/ml), which is an active oxygen eliminator, or water-soluble vitamin E (100 nM, 1, 2.5, 5, 10 mM/ml), and the concentration of IL-18 protein in the medium was measured. In the keratinocytes, the activation and release of IL-18 by the active oxygen molecular species were observed. Furthermore, these were suppressed by SOD, which is an active oxygen eliminator, or by vitamin E, which neutralizes active oxygen, dose-dependently (FIGS. 7C and 7D).
# [5] = system: Brain astrocytes; test: IL-18 release from astrocytes with paraquat stimulation; format: cell-based, mouse; conditions: astrocytes, 100 nM paraquat 1 hour; SOD 1-20 U/ml or water-soluble vitamin E 100 nM-10 mM/ml
# Protocol: Brain astrocytes isolated from the mouse neonatal brain by the method of Yang et al. (Yang P, Hernandez M R. Brain Res Brain Res Protoc. 2003 October; 12(2):67-76) were prepared at 1.5-2.0×10^6/ml. This was cultured in Dulbecco's minimum essential medium containing 100 nM of paraquat, which is an active oxygen generator, for 1 hour, after which the medium was exchanged with a paraquat-free medium. The cells were further cultured for 3 hours, after which the medium was collected, and the concentration of IL-18 protein in the medium was measured.
# [6] = system: IL-18 precursor; test: IL-18 (precursor) level in the adrenal of restraint stress mice; format: in vivo, mouse; conditions: given i.p. during restraint
# Protocol: For restraint stress, each mouse was kept in a restrainer (a round plastic tube 27 mm in diameter) for 1, 3 or 6 hours, and IL-18 levels were measured. Regarding the analysis of IL-6, each mouse was restrained as described above, and then housed in the starting cage for 6 hours, after which a measurement was performed.
# The anti-ACTH antiserum (50 μl, 1:1), dexamethasone (1 ng/50 μl PBS(−)) or the anti-IL-18 antibody (50 μl, 1:1) was administered intraperitoneally to each mouse; after 10 minutes elapsed, the animal was kept in a restraint tube for 6 hours. Synthetic ACTH (250 μg/50 μl PBS(−)) was injected to the left leg; after 6 hours elapsed, the mice were subjected to the experiment.
# as §1
# Western blot analysis of IL-18 and phosphorylated P38MAP kinase in adrenal tissue was performed as described below. […] Procaspase-11 and activated P38 MAP kinase were quantified using a Science Lab 99 image analysis system (manufactured by Fujifilm).
substance,measurement,setting,value
SOD: superoxide dismutase (SOD)-1 purchased from Sigma; active oxygen eliminator,stress-induced increase in procaspase-11 protein,[1],reduced
same,activation and release of IL-18 into the medium,[2],suppressed
same,activation and release of IL-18 into the medium,[3],suppressed
same,activation and release of IL-18 into the medium,[4],suppressed
same,activation and release of IL-18 into the medium,[5],suppressed
same,IL-18 precursor protein level in the adrenal,[6],did not reduce
